Where two headings read alike, the source gives them in different places.

In series [1] the test system is HT-22 cells. Kind of series: Effects of estratrienes with and without glutathione on neurotoxicity of βAP 25-35 in HT-22 cells. The note with it: for EC50: Mus musculus; for neuroprotection: concurrent treatment with βAP 25-35; for decrease in cell viability: β-AP (25-35).
Protocol: Experiments were initiated by plating cells in Nunc^X 24 well plate cells were allowed to attach for 4 h before treatment. […] After 48 h cells were suspended and viability determined using the trypan blue dye exclusion method (Tennant 1964). Steroids and βAP were prepared as previously described (Green et al. 1996). ED50 values were analyzed by a two way Analysis of Variance. Differences among effects were determined by a Scheffe's post hoc analysis with a p<0.05 considered significant. […] Data are normalized to the βAP free control group as 100% protection and the βAP alone group as 0% protection.
Series [2] concerns SK-N-SH cells. The experiment in a line: Live cell number of SK-N-SH cells with βAP 25-35 induced toxicity (trypan blue exclusion), 17β-estradiol and anti-oxidants. The note with it: for interaction with estrogen: combination with estrogen.
Protocol: The assay utilized the human neuroblastoma cells SK-N-SH.
Materials: Lyophilized βAP 25-35 (1 mg) (Bachem, Torrance, Calif.) was initially dissolved in 200 μl ddH20 and with the addition of 800 μl of PBS, rapid aggregation was observed. […] Lipoic acid (thiotic acid), taurine (2-aminoethanoic acid), and ascorbic acid were initially dissolved in cell culture media and used at the concentrations indicated. Unless otherwise noted, materials were obtained from Sigma Chemical Corp SK-N-SH Neuroblastoma Cell Culture: SK-N-SH neuroblastoma cells were obtained from American Type Tissue Collection (Rockville, Md.). Cell cultures were grown to confluency in RPMI-1640 media (Fisher Scientific, Inc.) supplemented with 10% charcoal/dextran-treated fetal bovine serum (FBS), (Hyclone®), Logan, Utah), 100 U/ml penicillin G and 100 mg/ml streptomycin (Sigma Chemical Corp.) in monolayers in Corning 150 cm^2 flasks (Fisher Scientific, Inc.) at 37° C. under 5% CO2, 95% air. Media was changed three times weekly.
(a) SK-N-SH cells used in the following experiments were in passes 4 to 12. The growth media was initially decanted and the cells were rinsed with 0.02% EDTA for 30 min at 37° C. Cells were then counted on a Neubauer hemacytometer (Fisher Scientific) and resuspended in appropriate media. Studies were initiated by plating 1×10^6 cells per well in 24 well plates, allowing attachment in regular media and then decanting that media and replacing with the appropriate treatment after 4 h.
SK-N-SH cell viability was determined utilizing the trypan blue exclusion method (Black and Berenbaum, 1964; Tennant, 1964). After 72 h of incubation, treatment media was decanted and cells were lifted by incubating with 0.2 ml 0.02% EDTA for 30 min at 37° C. Cells were suspended by repeated pipetting. One-hundred μl aliquots from each cell suspension were incubated with 100 μl aliquots of 0.4 % trypan blue stain for 5 min at room temperature. All suspensions were counted on a Neubauer hemacytometer within 10 min of addition of trypan blue stain. Two independent counts of live and dead cells were made for each aliquot.
Statistics: The significant treatment effects on cell viability were determined using ANOVA followed by Scheffe's post hoc test, with significance determined at p<0.05. For dose-response evaluations, EC50 values were calculated by randomly assigning cell counts at the indicated doses to generate 3-5 lines per treatment and determining the average value for those lines. Mann-Whitney Rank Sum non-parametric analysis were used on EC50 values because the variances for the standard deviation were not equivalent.
Series [3] has as its system SK-N-SH cells. The experiment in a line: Dose response of neuroprotection by GSH or 17β-estradiol against βAP 25-35 in SK-N-SH cells (trypan blue). The class given is cell-based, human. As to conditions: for EC50: Homo sapiens, SK-N-SH. How it is done: Media was changed three times weekly.
Cells were suspended by repeated pipetting.
After 72 hours incubation, live cells were determined with Trypan Blue exclusion.
After 72 hours incubation, the cells were stained with Trypan Blue. […] (FIG. 3).

For series [4], the system named is rat primary cortical neurons. The experiment in a line: Neuroprotection against βAP 25-35 in rat primary cortical neurons (LIVE/DEAD kit). The note with it: for EC50: Rattus norvegicus, Primary cortical neuron. How it is done: Primary Rat Cortical Culture: Primary neuronal cultures were prepared according to the method used by Chandler et al. Alcoholism: Clinical and Experimental Research, 17 (1993) 54-60.
Once treatments were added, primary cultures were incubated for an additional 24 h and viability determined using the LIVE/DEAD® viability/cytotoxicity kit (Molecular Probes, Eugene, Oreg.) according to manufacturer's instructions. Live cells are distinguished by the presence of intracellular esterase activity which cleaves the calcein AM dye, producing a bright green fluorescence when excited. Ethidium homodimer enters cells with damaged membranes, and upon binding to nucleic acids, produces a red fluorescence. Both dyes are excited at 485 nm, and cultures plates were viewed with a fluorescent microscope (Nikon Diaphot-300). Three random fields were photographed, and the average number of live cells per field was determined by counting the number of bright green cells.

For series [5], the system named is HT-22 cells. The experiment in a line: Effects of 17β-estradiol and its BSA conjugate on βAP 25-35 induced toxicity on HT-22 cells (trypan blue). The note with it: for Live Cell Number ± SEM: 3.25 μM GSH, 48 h.
Protocol: Experiments were initiated by plating cells in Nunc^X 24 well plate and cells were allowed to attach for 4 h before treatment.
Setting [6] is: HT-22, read-out: ED50, absence of GSH.
Where [7] appears, read: HT-22, read-out: ED50, presence of GSH.
Setting [8] is: βAP 25-35 (20 μM) + TRT (anti-oxidant), 72 h.
[9] abbreviates: βAP 25-35 (20 μM) + βE2 + TRT (anti-oxidant), 72 h.

As for `C[C@]12CC[C@@H]3c4ccc(O)cc4CC[C@H]3[C@@H]1CC[C@H]2O` [α-estradiol, 17 α-estradiol], the figures for the EC50 with HT-22 cells [1] (setting [6]) and with HT-22 cells [1] (setting [7]) were 1010 nM and 6 nM, respectively. Also, the neuroprotection entry in the series on HT-22 cells [1] was “dose-dependent neuroprotection”. In addition, the synergistic effect entry in the series with HT-22 cells [1] (with GSH, FIG. 5) is given as “marked synergistic effect”.
In the case of `CC(=O)Oc1c(C)c(C)c2c(c1C)CCC(C)(CCCC(C)CCCC(C)CCCC(C)C)O2` (stereo not drawn) [Tocopherol, α-tocopherol acetate], in the series on SK-N-SH cells [2], the interaction with estrogen entry is “no apparent interactions”. In addition, the live cell number is given as 448 ± 12 in the series with SK-N-SH cells [2] (setting [8]) and 456 ± 14 in the series on SK-N-SH cells [2] (setting [9]).
As to `N[C@@H](CCC(=O)N[C@@H](CS)C(=O)NCC(=O)O)C(=O)O` [GSH, glutathione], the “protection from β-AP toxicity” value with SK-N-SH cells [3] (GSH 325 μM) is “significant protection”. Also, the EC50 with SK-N-SH cells [3] (72 h, read-out: ED50 of glutathione, βAP 25-35 (20 μM), absence of 17β-estradiol, 72 h) amounted to 32500 nM; in the series on SK-N-SH cells [3] (72 h, read-out: ED50 of glutathione, βAP 25-35 (20 μM), presence of 17β-estradiol (2 nM), 72 h), 325 nM; in the series with SK-N-SH cells [3] (read-out: EC50 (GSH dose response, FIG. 2), βAP 25-35 (20 μM), without 17β-estradiol), 82500 ± 60400 nM; in the series on SK-N-SH cells [3] (read-out: EC50 (GSH dose response, FIG. 2), βAP 25-35 + 17β-estradiol (2 nM)), 41 ± 25 nM. In the series with SK-N-SH cells [3] (glutathione 3.25 μM, absence of 17β-estradiol), the neuroprotective effect entry is “little neuroprotective effect”. The “fold greater neuroprotectivity than with glutathione alone” value with SK-N-SH cells [3] (with 17β-estradiol (2 nM)) is 1000 fold. Further, the “effect on β-AP (25-35) induced toxicity” value in the series with HT-22 cells [1] (dose of GSH used in these studies, by itself) is recorded as “no effect”. Also, the “decrease in cell viability” value in the series on HT-22 cells [1] (presence of 3.25 pM GSH (so in the source)) is given as 55±3%. The live cell number was found to be 369 ± 7 with SK-N-SH cells [2] (setting [8]) and 534 ± 16 with SK-N-SH cells [2] (setting [9]).
Regarding “βAP 25-35: neurotoxic β-amyloid protein, a peptide of 10 amino acids (amino acids 25-35) (GSNKGAIIGLM; Amyloid-beta protein 42; UniProt P05067 696-706, looked up, fragment)”, the “reduction in the average number of viable cells per field” value in series [4] (βAP 25-35 (10 μM), absence of GSH, 24 h) stood at 39%. Further, the cells killed in the series on HT-22 cells [1] (exposure to βAP 25-35) was 50-60%. In the series with HT-22 cells [1] (absence of GSH), the “decrease in cell viability” value was 54±4%. In addition, the “Live Cell Number ± SEM” value in the series on HT-22 cells [5] (βAP (20 μM) alone) is 189 ± 11 ×10^3 cells. In addition, the live cell number in the series with SK-N-SH cells [2] (βAP alone, Ascorbic Acid column) turned out to be 118 ± 9; in the series with SK-N-SH cells [2] (βAP alone, GSH), 331 ± 17; in the series on SK-N-SH cells [2] (βAP alone, GSSG column) it was 331 ± 17; with SK-N-SH cells [2] (βAP alone, Lipoic Acid column) it was 408 ± 10; in the series on SK-N-SH cells [2] (βAP alone, Taurine column) it was 408 ± 10; in the series with SK-N-SH cells [2] (βAP alone, Tocopherol column), 366 ± 24.
In the case of `C[C@]12CC[C@@H]3c4ccc(O)cc4CC[C@H]3[C@@H]1CC[C@@H]2O` [17β-estradiol], the neuroprotection result in the series on SK-N-SH cells [3] (200 nM 17β-estradiol, absence of glutathione) is reported as “Neuroprotection was observed”; in the series with HT-22 cells [1], “dose-dependent neuroprotection”. Also, the EC50 with SK-N-SH cells [3] (72 h, read-out: ED50 of 17β-estradiol, Aβ 25-35 (20 μM), absence of glutathione, 72 h) turned out to be 100 nM; in the series with SK-N-SH cells [3] (72 h, read-out: ED50 of 17β-estradiol, Aβ 25-35 (20 μM), presence of glutathione (3.25 μM), 72 h), 0.02 nM; with SK-N-SH cells [3] (read-out: EC50 (17β-estradiol dose response, FIG. 3), βAP 25-35 (20 μM), without GSH), 126 ± 87.8 nM; in series [4] (absence of GSH), 68.1 ± 79 nM; in series [4] (presence of GSH), 4.3 ± 5.9 nM. Also, the live cell number amounted to 144 ± 9 in the series on SK-N-SH cells [2] (βAP + βE2, Ascorbic Acid column); 357 ± 19 in the series with SK-N-SH cells [2] (βAP + βE2, GSH column); 357 ± 19 with SK-N-SH cells [2] (βAP + βE2, GSSG column).
Turning to `NCCS(=O)(=O)O` [Taurine, 2-aminoethanoic acid], the interaction with estrogen result in the series on SK-N-SH cells [2] is “no apparent interactions”. In addition, the figures for the live cell number in the series with SK-N-SH cells [2] (setting [8]) and with SK-N-SH cells [2] (setting [9]) were 402 ± 9 and 439 ± 11, respectively.
For the compound `O=C1O[C@H]([C@@H](O)CO)C(O)=C1O` [Ascorbic Acid, ascorbic acid], the interaction with estrogen entry in the series with SK-N-SH cells [2] is “no apparent interactions”. Besides, the live cell number in the series on SK-N-SH cells [2] (setting [8]) is listed as 124 ± 6; in the series on SK-N-SH cells [2] (setting [9]), 188 ± 11.
On to “17β-estradiol-6-(carboxymethyl) oxime: BSA [β17-E2:BSA]”, for which, in the series with HT-22 cells [5] (BSA conjugate containing 20 μM 17β-estradiol, presence of GSH), the “ability to protect HT22 cells from βAP (25-35) toxicity” value is reported as “abolished the ability of the steroid to protect HT22 cells”. Also, the “Live Cell Number ± SEM” value in the series with HT-22 cells [5] (βAP (20 μM) + 20 μM β17-E2:BSA) was 216 ± 17 ×10^3 cells.
For the compound `O=C(O)CCCCC1CCSS1` (stereo not drawn) [Lipoic Acid, Lipoic acid], the interaction with estrogen result with SK-N-SH cells [2] is reported as “no apparent interactions”. In addition, the live cell number in the series with SK-N-SH cells [2] (setting [8]) worked out at 406 ± 7; with SK-N-SH cells [2] (setting [9]) it was 416 ± 10.
Turning to `C[C@@]12CCC[C@H]1[C@@H]1CCc3cc(O)ccc3[C@H]1CC2` [E-3-ol, estratriene-3-ol], the EC50 with HT-22 cells [1] (setting [6]) turned out to be 3680 nM; in the series on HT-22 cells [1] (setting [7]) it was 14 nM.

(Values after patent US5972923A, “Methods and compositions to enhance the cytoprotective effects of polycyclic phenolic compounds through the synergistic interaction with anti-oxidants” (priority 1998, dated 1999).)
